Experimental data taken from patent publication US11149049B2, “Substituted nucleosides, nucleotides and analogs thereof” (JANSSEN BIOPHARMA, INC., priority 2017, dated 2021).
pEC50: −log10 of the molar value. Read-outs that look alike come from different tables or passages of the source.

How the values were obtained:
[1] = tested on: RSV replicon; assay: microbe, parasite or virus in culture; format: cell-based
[2] = tested on: Human rhinovirus 1B; assay: Rhinovirus antiviral assay (HRV1B); format: cell-based; settings: Rhinovirus A, 96 h, read-out: HRV 1B EC50, HeLa-OHIO cells, 4 d, CellTiter-Glo
[3] = tested on: human β-coronavirus strain OC43; assay: Coronavirus antiviral assay (OC43); format: cell-based; settings: Betacoronavirus 1, OC43, 120 h; HeLa or MRC-5 cells, five days, CellTiter-Glo; read-out: OC43CoV EC50
Experimental: (§1) The human β-coronavirus strain OC43 was purchased from ATCC (Manassas, Va.; item numbers VR-1558 and VR-740, respectively). 24 hours prior to dosing, HeLa human cervix epithelial cells (ATCC, CCL-2) or MRC-5 human lung fibroblast (ATCC, CCL-171) were plated in 96 well plates at a density of 1.5×10^5/ml in DMEM medium supplemented with 10% fetal bovine serum, 1% HEPES buffer, 1% Penicillin/Streptomycin and 1% non-essential amino acids (all Mediatech, Manassas, Va.). At the day of infection, serially diluted compounds were added to cells and incubated for 4 hours. After the end of the 4 hour pre-incubation period, cells were infected with either coronavirus strain OC43 or 229E. The virus inoculum was selected to cause 80-90% cytopathic effect. Infected cells were incubated for five days at 37° C., 5% CO2. To develop the assay, 100 μl media was replaced with 100 μl CellTiter-Glo® reagent (Promega, Madison, Wis.), and incubated for 10 min at room temperature. Luminescence was measured on a Victor X3 multi-label plate reader. Potential compound cytotoxicity was determined using uninfected parallel cultures.

[4] = Toxicity (CC50) in the HRV1B assay; settings: human
[5] = Cytotoxicity in the coronavirus assay, uninfected parallel cultures; format: cell-based; settings: human, read-out: OC43CoV CC50
Experimental: as §1

[6] = Cell viability (CC50) in the RSV replicon assay; settings: human, HeLa-derived cells containing the stable RSV replicon, CellTiter-Glo
[7] = tested on: Dengue virus type 2 NG-C or Dengue virus type 4 H241; assay: Dengue antiviral assay (DENV); format: cell-based; settings: Huh-7.5 cells, five to six days, CellTiter-Glo
Experimental: The Dengue virus type 2 strain New Guniea C (NG-C) and the Dengue virus type 4 strain H241 were purchased from ATCC (Manassas, Va.; item numbers VR-1584 and VR-1490, respectively). 24 hours prior to dosing, Huh-7.5 cells were plated in 96 well plates at a density of 1.5×10^5/ml in DMEM medium supplemented with 10% fetal bovine serum, 1% HEPES buffer, 1% Penicillin/Streptomycin and 1% non-essential amino acids (all Mediatech, Manassas, Va.). At the day of infection, serially diluted compounds were added to cells and incubated for 4 hours. After the end of the 4 hour pre-incubation period, cells were infected with either Dengue virus type 2 NG-C or Dengue virus type 4 H241. The virus inoculum was selected to cause 80-90% cytopathic effect in five to six days. Infected cells were incubated for five (NG-C) to six (H241) days at 37° C., 5% CO2. To develop the assay, 100 μl media was replaced with 100 μl CellTiter-Glo® reagent (Promega, Madison, Wis.), and incubated for 10 min at room temperature. Luminescence was measured on a Victor X3 multi-label plate reader. Potential compound cytotoxicity was determined using uninfected parallel cultures.

[8] = tested on: Ebola minigenome; assay: microbe, parasite or virus in culture; format: cell-based
[9] = in vitro; settings: human
[10] = Cytotoxicity in the DENV assay, uninfected parallel cultures; settings: human, DENV CC50, uninfected Huh-7.5 parallel cultures
[11] = human respiratory syncytial virus, 168 h, read-out: RSV EC50, HeLa-derived RSV replicon cells, 7 days, luciferase
[12] = Zaire ebolavirus, HEp-2, 48 h, read-out: EBOV EC50, HEp-2 cells, Ebola minigenome, 48 hours

| SMILES | pEC50 [1, 11] | pEC50 [2] | pEC50 [3] | CC50 at 4 d [4] | CC50 at 5 days [5] | CC50 at 7 days [6] | pEC50 ([1]; read-out: RSV EC50, HeLa-derived RSV replicon cells, 7 days, luciferase) | pEC50 ([7]; Dengue virus, Huh7.5, 144 h) | pEC50 [7] | pEC50 [8, 12] | pEC50 ([8]; read-out: EBOV EC50, HEp-2 cells, Ebola minigenome, 48 hours) | CC50 [9] | CC50 [10] |
| --- | --- | --- | --- | --- | --- | --- | --- | --- | --- | --- | --- | --- | --- |
| CCCOC(=O)[C@H](C)NP(=O)(N[C@@H](C)C(=O)OCCC)OC[C@@]1(F)O[C@@](C#N)(c2ccc3c(N)ncnn23)[C@H](O)[C@@H]1O [Compound 10] | 6.77 | 5.51 | 5.64 | > 100 µM | > 50 µM | > 100 µM |  |  |  |  |  |  |  |
| CC(C)OC(=O)[C@@H](C)NP(=O)(OC[C@@]1(N=[N+]=[N-])O[C@@](C#N)(c2ccc3c(N)ncnn23)[C@H](O)[C@@H]1O)Oc1ccccc1 (stereo partly drawn) [Compound 11, Isopropyl ((((2R,3S,4R,5R)-5-(4-aminopyrrolo[2,1-f][1,2,4]triazin-7-yl)-2-azido-5-cyano-3,4-dihydroxytetrahydrofuran-2-yl)methoxy)(phenoxy)phosphoryl)-D-alaninate] | 5.89 | < 4.00 | < 4.30 | 59 µM | > 50 µM | 13.6 µM |  |  |  |  |  |  |  |
| C[C@H](NP(=O)(OC[C@@]1(F)O[C@@](C#N)(c2ccc3c(N)ncnn23)[C@H](O)[C@@H]1O)Oc1ccccc1)C(=O)OCC(C)(C)C (stereo partly drawn) [Compound 8, Neopentyl ((((2S,3S,4R,5R)-5-(4-aminopyrrolo[2,1-f][1,2,4]triazin-7-yl)-5-cyano-2-fluoro-3,4-dihydroxytetrahydrofuran-2-yl)methoxy)(phenoxy)phosphoryl)-L-alaninate] | 7.52 |  | 7.00 | 64 µM | > 50 µM |  | 7.59 | 6.96 | 6.85 | 6.30 | 6.10 | > 100 µM |  |
| CCC(CC)COC(=O)[C@@H](C)NP(=O)(OC[C@@]1(F)O[C@@](C#N)(c2ccc3c(N)ncnn23)[C@H](O)[C@@H]1O)Oc1ccccc1 (stereo partly drawn) [Compound 9, 2-Ethylbutyl ((((2S,3S,4R,5R)-5-(4-aminopyrrolo[2,1-f][1,2,4]triazin-7-yl)-5-cyano-2-fluoro-3,4-dihydroxytetrahydrofuran-2-yl)methoxy)(phenoxy)phosphoryl)-D-alaninate] | 7.74 | 6.89 | 7.60 | 33 µM | 34 µM | 8.1 µM |  | 7.15 |  | 6.60 |  | ~50 µM | 12 µM |
| CC(C)OC(=O)[C@@H](C)NP(=O)(OC[C@@]1(F)O[C@@](C#N)(c2ccc3c(N)ncnn23)[C@H](O)[C@@H]1O)Oc1ccccc1 (stereo partly drawn) [Compound 5, Isopropyl ((((2S,3S,4R,5R)-5-(4-aminopyrrolo[2,1-f][1,2,4]triazin-7-yl)-5-cyano-2-fluoro-3,4-dihydroxytetrahydrofuran-2-yl)methoxy)(phenoxy)phosphoryl)-D-alaninate] | 5.56 |  | 4.60 |  | > 100 µM | > 100 µM |  | 5.13 |  |  |  |  | > 100 µM |
